Data as given in PubChem BioAssay (NCI).
Values joined by “and” are separate entries in the source; they are usually repeats but may differ in a detail not shown here. Equal values may be shown once.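 Five compound concentrations were applied to cells in 96-well plates for 48 hours; endpoints were derived by simple linear interpolation of the resulting dose-response curve. Here, GI50 denotes the concentration required for 50% inhibition of growth. TGI is the concentration that stops growth completely.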

Tests used:
Assay in all cases: NCI anticancer screen, dose series, 48 h
MDA-N = system: MDA-N
NCI-H522 lung = system: NCI-H522 lung
IGROV1 ovarian = system: IGROV1 ovarian
A498 renal = system: A498 renal
MCF7 breast = system: MCF7 breast
HT29 colon = system: HT29 colon
COLO 205 colon = system: COLO 205 colon
MDA-MB-435 = system: MDA-MB-435
CCRF-CEM leukemia = system: CCRF-CEM leukemia

## Cc1ccc2nc(N/N=C/c3cccc(C)n3)cc(C)c2c1
MDA-N
  TGI: 32.5 µM
NCI-H522 lung
  TGI: 39.8 µM
IGROV1 ovarian
  TGI: 32 µM
A498 renal
  TGI: 37.6 µM
MCF7 breast
  TGI: 32.5 µM
HT29 colon
  TGI: 27.3 µM
COLO 205 colon
  TGI: 32.6 µM
MDA-MB-435
  TGI: 32 µM

## CC[C@@]1(O)C(=O)OCc2c1cc1n(c2=O)Cc2cc3c(NC(=O)CN)cccc3nc2-1
MDA-N
  TGI: 46.7 µM
CCRF-CEM leukemia
  TGI: 2.33 µM
NCI-H522 lung
  TGI: 56.3 µM
IGROV1 ovarian
  TGI: > 100 µM
A498 renal
  TGI: 3.27 µM
MCF7 breast
  TGI: > 100 µM
HT29 colon
  TGI: > 100 µM
COLO 205 colon
  TGI: > 51.3 µM
MDA-MB-435
  TGI: 17.3 µM

## COc1ccc(C(=O)CC(c2ccc(OC)c(OC)c2)c2c(O)c3ccccc3oc2=O)cc1OC (stereo not drawn)
MDA-N
  TGI: > 100 µM
CCRF-CEM leukemia
  TGI: > 100 µM
NCI-H522 lung
  TGI: > 100 µM
IGROV1 ovarian
  TGI: > 100 µM
MCF7 breast
  TGI: > 100 µM
HT29 colon
  TGI: > 100 µM
COLO 205 colon
  TGI: > 100 µM
MDA-MB-435
  TGI: > 100 µM

## O=C(NC1(C(=O)O)CC1c1ccccc1)c1ccccc1 (stereo not drawn)
MDA-N
  TGI: > 100 µM
NCI-H522 lung
  TGI: > 100 µM
IGROV1 ovarian
  TGI: > 100 µM
A498 renal
  TGI: > 100 µM
MCF7 breast
  TGI: > 100 µM
HT29 colon
  TGI: > 100 µM
COLO 205 colon
  TGI: > 100 µM
MDA-MB-435
  TGI: > 100 µM

## CO/C(=N\N=C\c1cccc(C(F)(F)F)c1)c1ccncc1
MDA-N
  GI50: 3.25 µM
  TGI: 5.17 µM and 32.5 µM
CCRF-CEM leukemia
  GI50: 3710 nM
  TGI: 84.1 µM
NCI-H522 lung
  GI50: 6.41 µM
  TGI: 30.3 µM
IGROV1 ovarian
  TGI: 79.3 µM
A498 renal
  TGI: 42.8 µM
MCF7 breast
  GI50: 7330 nM
  TGI: > 100 µM
HT29 colon
  GI50: 3470 nM
  TGI: 19 µM
COLO 205 colon
  TGI: 39.6 µM
MDA-MB-435
  GI50: 3.33 µM
  TGI: 6.17 µM and 25.5 µM

## CN(C)S(=O)(=O)c1ccc(Nc2ccc(O)c3c2C(=O)c2c([N+](=O)[O-])ccc(O)c2C3=O)cc1
MDA-N
  TGI: > 100 µM
CCRF-CEM leukemia
  TGI: 44.9 µM
NCI-H522 lung
  TGI: > 100 µM
IGROV1 ovarian
  TGI: > 100 µM
A498 renal
  TGI: > 100 µM
MCF7 breast
  TGI: > 100 µM
HT29 colon
  TGI: > 100 µM
COLO 205 colon
  TGI: > 100 µM
MDA-MB-435
  TGI: > 100 µM

## Cc1ccc(Oc2nc3ccccc3cc2-c2nnc(Cn3c(COc4ccccc4)nc4ccccc43)o2)cc1
CCRF-CEM leukemia
  GI50: 414 nM
  TGI: 3.74 µM
NCI-H522 lung
  GI50: 6.34 µM
  TGI: 21.1 µM
IGROV1 ovarian
  GI50: 3.25 µM
  TGI: 22 µM
A498 renal
  GI50: 409 nM
  TGI: 18.7 µM
MCF7 breast
  GI50: 949 nM
  TGI: 5.38 µM
HT29 colon
  GI50: 2020 nM
  TGI: 4.43 µM
COLO 205 colon
  GI50: 1890 nM
  TGI: 4.44 µM
MDA-MB-435
  GI50: 3.06 µM
  TGI: 11.9 µM

## CN(C)CCNC(=O)c1nc([N+](=O)[O-])cn1C
CCRF-CEM leukemia
  TGI: > 100 µM
NCI-H522 lung
  TGI: > 100 µM
IGROV1 ovarian
  TGI: > 100 µM
A498 renal
  TGI: > 100 µM
MCF7 breast
  TGI: > 100 µM
HT29 colon
  TGI: > 100 µM
COLO 205 colon
  TGI: > 100 µM
MDA-MB-435
  TGI: > 100 µM

## Cc1ccc(C[P+](c2ccccc2)(c2ccccc2)c2ccccc2)cc1
CCRF-CEM leukemia
  GI50: 1310 nM
NCI-H522 lung
  GI50: 0.75 µM
IGROV1 ovarian
  GI50: 2.33 µM
  TGI: > 100 µM
A498 renal
  GI50: 1840 nM
  TGI: 7.4 µM
MCF7 breast
  GI50: 701 nM
  TGI: > 33 µM
HT29 colon
  GI50: 427 nM
  TGI: > 41.6 µM
COLO 205 colon
  GI50: 740 nM
  TGI: 6.7 µM
MDA-MB-435
  GI50: 0.515 µM
  TGI: 5.4 µM

## CCOC(=O)C1=C(c2ccccc2)N(c2ccc(OC)cc2)[C@]2(C#N)C(O)=C(Cl)C(Cl)=C(O)[C@]12C#N
CCRF-CEM leukemia
  GI50: 10100 nM
  TGI: 23.6 µM
NCI-H522 lung
  GI50: 21.3 µM
  TGI: 46.6 µM
IGROV1 ovarian
  GI50: 21.7 µM
  TGI: 48.6 µM
A498 renal
  GI50: 35800 nM
  TGI: > 100 µM
MCF7 breast
  GI50: 18700 nM
  TGI: 36.1 µM
HT29 colon
  GI50: 34800 nM
  TGI: > 100 µM
COLO 205 colon
  GI50: 18600 nM
  TGI: 33.5 µM
MDA-MB-435
  GI50: 18.8 µM
  TGI: 37.1 µM

## Oc1cc(Cl)ccc1Cc1ccc(Cl)cc1O
CCRF-CEM leukemia
  GI50: 15800 nM
  TGI: > 100 µM
NCI-H522 lung
  GI50: 3.86 µM
  TGI: 15 µM
IGROV1 ovarian
  GI50: 12.5 µM
  TGI: 31.2 µM
A498 renal
  GI50: 17400 nM
  TGI: 31.3 µM
MCF7 breast
  GI50: 13200 nM
  TGI: 27.9 µM
HT29 colon
  GI50: 17500 nM
  TGI: 31.3 µM
COLO 205 colon
  GI50: 16900 nM
  TGI: 30.6 µM
MDA-MB-435
  GI50: 5.37 µM
  TGI: 24.5 µM

## COc1cc(-c2n/c(=C\c3c(O)[nH]c4ccccc34)cc3c2=Nc2ccccc2-3)cc(OC)c1OC
CCRF-CEM leukemia
  GI50: 1120 nM
  TGI: > 100 µM
NCI-H522 lung
  GI50: 0.247 µM
  TGI: 0.664 µM
IGROV1 ovarian
  GI50: 2 µM
  TGI: > 24.5 µM
A498 renal
  GI50: 854 nM
  TGI: 6.25 µM
MCF7 breast
  GI50: 363 nM
  TGI: > 23.2 µM
HT29 colon
  GI50: 407 nM
  TGI: 2.53 µM
COLO 205 colon
  GI50: 1550 nM
  TGI: 6.7 µM
MDA-MB-435
  GI50: 1.68 µM
  TGI: 6.48 µM

## C=C(C)[C@@H]1CC[C@]2(C(=O)NCCNCCNCCN)CC[C@]3(C)[C@H](CC[C@@H]4[C@@]5(C)CCC(=O)C(C)(C)[C@@H]5CC[C@]43C)[C@@H]12
CCRF-CEM leukemia
  GI50: 9650 nM
  TGI: 27.8 µM
NCI-H522 lung
  GI50: 8.72 µM
  TGI: 18.5 µM
IGROV1 ovarian
  GI50: 6.42 µM
  TGI: 14.4 µM
A498 renal
  GI50: 42600 nM
  TGI: > 50 µM
MCF7 breast
  GI50: 7380 nM
  TGI: 15.5 µM
HT29 colon
  GI50: 7170 nM
  TGI: 14.6 µM
COLO 205 colon
  GI50: 8740 nM
  TGI: 19 µM
MDA-MB-435
  GI50: 8.7 µM
  TGI: 17.5 µM

## N#C[C@H]1Nc2ccccc2[C@@H](O)C1O (stereo partly drawn)
MDA-N
  TGI: > 100 µM
CCRF-CEM leukemia
  TGI: > 100 µM
IGROV1 ovarian
  TGI: > 100 µM
MCF7 breast
  TGI: > 100 µM
HT29 colon
  TGI: > 100 µM
COLO 205 colon
  TGI: > 100 µM
MDA-MB-435
  TGI: > 100 µM

## CN1CCC(n2[nH]c(-c3ccccc3)c(Cc3ccccc3)c2=O)CC1
MDA-N
  TGI: > 100 µM
CCRF-CEM leukemia
  TGI: > 100 µM
NCI-H522 lung
  TGI: > 100 µM
IGROV1 ovarian
  TGI: > 100 µM
A498 renal
  TGI: > 100 µM
MCF7 breast
  TGI: > 100 µM
HT29 colon
  TGI: > 100 µM
COLO 205 colon
  TGI: > 100 µM
MDA-MB-435
  TGI: > 100 µM

## N=C(N)c1ccc(-c2ccc(-c3ccc(F)cc3)o2)o1
CCRF-CEM leukemia
  GI50: 1840 nM
  TGI: 5.57 µM
NCI-H522 lung
  GI50: 1.36 µM
  TGI: 2.9 µM
IGROV1 ovarian
  GI50: 1.58 µM
  TGI: 3.35 µM
A498 renal
  GI50: 1900 nM
  TGI: 5.95 µM
MCF7 breast
  GI50: 685 nM
  TGI: 2.38 µM
HT29 colon
  GI50: 606 nM
  TGI: 1.94 µM
COLO 205 colon
  GI50: 1600 nM
  TGI: 3.15 µM
MDA-MB-435
  GI50: 0.347 µM
  TGI: 1.3 µM

## COC(=O)[C@@H]1CCCN1C(=O)[C@H]1CCCN1C(=O)[C@@H](Cc1c[nH]c2ccccc12)NC(=S)Nc1cc(C(F)(F)F)cc(C(F)(F)F)c1
CCRF-CEM leukemia
  GI50: 3250 nM
  TGI: 11.3 µM
NCI-H522 lung
  GI50: 2.47 µM
  TGI: 6.65 µM
IGROV1 ovarian
  GI50: 2.59 µM
  TGI: 6.73 µM
A498 renal
  GI50: 1010 nM
  TGI: 7.11 µM
MCF7 breast
  GI50: 2110 nM
  TGI: 5.37 µM
HT29 colon
  GI50: 1970 nM
  TGI: 3.84 µM
COLO 205 colon
  GI50: 2060 nM
  TGI: 3.97 µM
MDA-MB-435
  GI50: 2.9 µM
  TGI: 9.07 µM

## O=C1CC/C(=C\COc2ccc3ccc(=O)oc3c2)O1
CCRF-CEM leukemia
  GI50: 2420 nM
  TGI: 13.6 µM
NCI-H522 lung
  GI50: 1.76 µM
  TGI: 5.83 µM
IGROV1 ovarian
  GI50: 4.2 µM
  TGI: 17.8 µM
A498 renal
  GI50: 16800 nM
  TGI: 44 µM
MCF7 breast
  GI50: 3610 nM
  TGI: 33.8 µM
HT29 colon
  GI50: 3040 nM
  TGI: 17.3 µM
COLO 205 colon
  GI50: 3210 nM
  TGI: 17.5 µM
MDA-MB-435
  GI50: 3.41 µM
  TGI: 17.5 µM
